Source: patent publication US11471502B2, “Neuroprotective peptide” (UNIVERSITY COLLEGE CARDIFF C[…], priority 2017, dated 2022)
Entries after “also recorded” stand apart in the source; their conditions may differ.

Legend:
[1] = RB5 brain levels by HPLC-MS/MS after single i.p. administration; format: in vivo, mouse; conditions: single i.p. 20 mg/kg, mass spectrometry
Protocol: Bioavailability of RB5 in the mouse brain was determined at different time intervals (1, 3, 6, 12 h) after a single i.p. administration of 20 mg/kg. RB5 was then quantified in mouse brain using HPLC-MS/MS. Brain samples were homogenized with 1:4 w/v of 50% acetonitrile, 5% TFA in water with an homogenizer ultra-turrax and then centrifuged at 13000 rpm for 10 min at 4° C. The supernatant was collected and centrifuged at 13000 rpm for 2 minutes at 4° C. The supernatant was then collected in ice, extracted using Sep-Pak cartridges C18, lyophilised and kept at 4° C. before HPLC-MS/MS analysis. Immediately before the analysis samples were suspended in 100 μL of 0.1% HCOOH in water/8% acetonitrile in auto-sampler vials.
HPLC-MS/MS analysis was performed using a system consisting of an Agilent 1200 series HPLC system coupled with an Agilent 6410 Triple Quadruple mass spectrometer. Mass Hunter Workstation v. […] The quantification of mouse brain levels of RB5 and scramble peptides was carried out using an internal standard curve with peptide concentrations ranging from 0.1 to 4 ng per μl. […]
Peptides were then detected on an Agilent 6410 QQQ mass spectrometer using the following parameters: positive ion mode, 5 kV capillary voltage, cone voltage 500 V, gas flow rate 8 L/min at 350° C., nebulizer gas pressure 40 PSI at 350° C., well time 75 msec and Q1 and Q3 set to unit resolution.

[2] = target: phospho p44/p42 MAP kinase; test: Dose response curve of RB5 for ERK activation in striatal slices; format: cell-based, mouse; conditions: 200 μm striatal slices, 1 h pre-treatment; read-out: EC50 for enhancing pERK (phospho-ERK positive cells)
Protocol: a) RB5 peptide selectively promoted activation of ERK2. Acute striatal slices either pre-treated with Scramble (SCR) or RB5 peptide (50 μM) and then stimulated 10 minutes with glutamate (GLU) (100 μM) or vehicle were analysed in Western blot (left panel) and probed with anti phospho ERK antibodies (p44^ERK1 and p42^ERK2) and anti ERK1/2 antibody. GAPDH was used as loading control. […] No changes were detected in the total ERK1 and ERK2 levels. GAPDH was used as loading control. […] Mice injected with a single dose of CPP-SCR or CPP-RB5 peptides (20 mg/kg, i.p.) were rapidly perfused 1 h later and brains were dissected and further analysed for IHC and immunofluorescence. Representative photomicrographs of pERK1/2, pMSK, pAch3, pELK1 and c-Fos expression in the striatum. […] Two-way ANOVA Bonferroni post hoc comparison: one black star, p<0.05, two black stars, p<0.01, one white star, p<0.001. p) Dose response curve of RB5 peptide for ERK activation. 200 μm thick striatal slices were freshly prepared from 2-month old mice and transferred into a perfusion chamber for 1 h at 32° C. Slices were pre-treated with different doses of RB5 or scrambled control. After 1 h, slices for each dose was fixed in PFA 4% for 15 min. […] Neuronal quantification was performed with ImageJ software by counting the number of phospho-ERK positive cells in each slice. […] The EC50 was calculated using GraphPad Prism software.

[3] = system: phospho-p44/p42 MAP kinase (Thr202/Tyr204); test: In vivo time course and dose response of ERK activation in dorsal striatum; set-up: species or system mouse; conditions: dorsal striatum
Protocol: (§1) Mice injected with RB5 were perfused at different time points, whereas scramble-injected mice were perfused after 1 hour. Immunohistochemical analysis was carried out against phospho-p44/p42 MAP kinase (Thr202/Tyr204). […] One-way ANOVA F5,29=9.137, p<0.0001. Bonferroni's post-hoc test, SCR vs RB5 1 h: p<0.001, SCR vs RB5 6 h: p<0.001. […] Immunohistochemical analysis was carried out against phospho-p44/p42 MAP kinase (Thr202/Tyr204). […] One-way ANOVA: F5,29=7.097, p<0.001. Bonferroni's post-hoc test, SCR vs RB5 20 mg/kg: p<0.05, SCR vs RB5 10 mg/kg: p<0.01. Data are expressed as Mean±SEM. c) RB5 brain levels measured with mass spectrometry at different hours after a single i.p. administration of 20 mg/kg. High levels of RB5 were detected up to 6 hrs (one-way ANOVA, F4,18=17.469, P<0.0001, Bonferroni's post-hoc, SCR vs RB5 1 h P<0.01, SCR vs RB5 3 h P<0.0001, SCR vs RB5 6 h P<0.05). […] White star P<0.0001, P<0.001, P<0.01, P<0.05.
(§2) 1 h after CPP-RB5/CPP-SCR (20 mg/kg, i.p.) mice were anaesthetized and perfused via intracardiac infusion of ice-cold 4% PFA. Brains were rapidly extracted, post-fixed overnight and transferred to 25% buffered sucrose for 24 h. Coronal sections were cut at 30 μm thickness on a freezing microtome and stored in a cryoprotective solution at −20° C. until they were processed for immunohistochemistry. Free-floating sections were incubated with primary antibodies against anti-phospho-p44/42 MAP kinase (Thr202/Tyr204), anti-phospho-Elk-1 (Ser383), anti-phospho-Kv4.2 (Thr607)-R, anti-phospho-MSK-1, anti-phospho-MEK-1, c-Fos and Tyrosine Hydroxylase overnight at 4° C. Sections were then incubated with biotinylated goat anti-rabbit IgG (1:200, Vector Labs) for 2 h. Detection of the bound antibodies was carried out using a standard peroxidase-based method (ABC-kit, Vectastain, Vector Labs), followed by a DAB and H2O2 solution. Quantification of positive neurons were counted from striatum in 2-3 sections per mouse, bilaterally. Sample areas were visualized under a 20× objective in a Leica DM IRB microscope by a blind investigator to condition and counts per region were averaged across the sections using the ImageJ software.

[4] = as above; set-up: species or system mouse; conditions: mouse, in vivo, ip; 20 mg/kg i.p.; read-out: estimated half-life (of RB5 activity on pERK in brain) (converted)
Protocol: as §1, §2

In the case of `CSCC[C@H](NC(=O)[C@H](CCC(=O)O)NC(=O)[C@@H](NC(=O)[C@H](CCC(=O)O)NC(=O)CNC(=O)[C@@H]1CCCN1C(=O)[C@@H](NC(=O)CNC(=O)[C@@H]1CCCN1C(=O)CNC(=O)[C@@H](NC(=O)CNC(=O)[C@H](CCC(=O)O)NC(=O)[C@@H](NC(=O)[C@H](CCCNC(=N)N)NC(=O)[C@H](CCCNC(=N)N)NC(=O)[C@@H]1CCCN1C(=O)[C@H](CCC(=O)O)NC(=O)CNC(=O)CNC(=O)CNC(=O)CNC(=O)CNC(=O)[C@H](CCC(N)=O)NC(=O)[C@@H]1CCCN1C(=O)[C@@H]1CCCN1C(=O)[C@H](CCCNC(=N)N)NC(=O)[C@H](CCCNC(=N)N)NC(=O)[C@H](CCCNC(=N)N)NC(=O)[C@H](CCC(N)=O)NC(=O)[C@H](CCCNC(=N)N)NC(=O)[C@H](CCCNC(=N)N)NC(=O)[C@H](CCCCN)NC(=O)[C@H](CCCCN)NC(=O)[C@H](CCCNC(=N)N)NC(=O)CNC(C)=O)[C@@H](C)O)C(C)C)C(C)C)C(C)C)C(=O)N[C@H](C(=O)N[C@@H](CCCCN)C(=O)NCC(=O)N[C@@H](CCC(N)=O)C(=O)N1CCC[C@H]1C(=O)N[C@@H](Cc1ccccc1)C(=O)N[C@@H](CC(=O)O)C(=O)N[C@@H](C(=O)O)C(C)C)C(C)C` [RB5], the “time up to which high RB5 brain levels were detected” value [1] is reported as “up to 6 h”, the EC50 [2] is reported as 3.4 µM and the “time after injection at which phospho-ERK returned to basal levels” value ([3]; 20 mg/kg i.p.) is reported as 12 h. The “time after injection up to which phospho-ERK levels / RB5 activity remained increased” value ([3]; 20 mg/kg i.p.) was “up to 6 h”, the pERK dose response ([3]; different doses i.p., 1 hour after injection) was “both 20 and 10 mg/kg (i.p.) doses are able to elevate pERK; also recorded: dose-dependent manner” and the half-life [4] was 9 h.
